Format in all cases: in vivo
Assay [1] has as its system Orchid Thrips (Dichromothrips Corbetti). The experiment in a line: B.7 Orchid thrips, floral immersion. To be noted: read-out: mortality in comparison with untreated controls. The procedure, abridged: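 Orchid flower petals dipped in compound diluted in 1:1 acetone:water plus 0.01% v/v Kinetic HV, dried, then enclosed with about 20 adult lab-colony thrips. Held under continuous light at about 28 °C; percent mortality recorded 72 hours after treatment.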

The subject of assay [2] is Brown Marmorated Stink Bug (Halyomorpha halys). The experiment in a line: B.13 Brown marmorated stink bug, spray. To be noted: 120 h, read-out: mortality in comparison with untreated controls. The procedure: B.13 Brown Marmorated Stink Bug (Halyomorpha halys)
The active compound was dissolved at the desired concentration in a mixture of 1:1 (vol:vol) distilled water:acetone. Surfactant (Kinetic HV) was added at a rate of 0.01% (vol/vol). The test solution was prepared at the day of use.
Row peanuts and soybean seeds were placed into microwavable plastic cups and inoculated with five adult stage H. halys. Using a hand atomizer, approximately 1 ml solution is sprayed into each cup, insects and food present. A water source was provided (cotton wick with water) Each treatment is replicated 4-fold. Assay arenas are kept at about 25° C. Percent mortality was recorded after 5 days.

Assay [3] has as its system Red Spider Mite (Tetranychus kanzawai). The experiment in a line: B.9 Red spider mite, sprayed cowpea beans. The settings on record: read-out: mortality in comparison with untreated controls. The gist of the method:
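Potted cowpea beans aged 4-5 days were sprayed with compound in 1:1 water:acetone plus 0.01% surfactant, air dried, then infested with ≥30 mites. Kept at about 25-27° C and 50-60% relative humidity; percent mortality scored 72 h after treatment.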

For assay [4], the system named is Vetch Aphid (Megoura viciae). Description: B.3 Vetch aphid, broad bean leaf disks. The settings on record: foliar, 120 h, read-out: mortality in comparison with untreated controls. The procedure, abridged:
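Broad bean leaf disks sprayed with compounds in 25% DMSO/water at various concentrations, two replicates, then air-dried and infested with 5-8 adult Megoura viciae (contact/systemic exposure). After 5 days at about 23±1 °C and 50±5% RH, mortality and fecundity scored visually.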

The test system of assay [5] is Rice Green Leafhopper (Nephotettix virescens). Description: B.8 Rice green leafhopper, sprayed rice seedlings. To be noted: read-out: mortality in comparison with untreated controls. The procedure, abridged:
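Potted rice seedlings, washed 24 h earlier, were sprayed with 5-6 ml of compound in 1:1 acetone:water plus 0.01% surfactant. Once dry, they were caged and infested with 10 adults, then held at about 28-29° C and 50-60% RH. Percent mortality was scored at 72 h.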

Assay [6] deals with Green Peach Aphid (Myzus persicae). The experiment in a line: B.2 Green peach aphid, artificial diet, systemic. To be noted: 72 h, read-out: mortality in comparison with untreated controls. The procedure, abridged: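 Adult aphids (5-8 per well) fed through a membrane on artificial diet containing compound formulated in 75% water/25% DMSO, with two replications per concentration. Incubation lasted 3 days at about 23±1° C and 50±5% relative humidity. Mortality and fecundity were then assessed visually.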

Assay [7] deals with Boll Weevil (Anthonomus grandis). Description: B.5 Boll weevil, insect diet with eggs. To be noted: 120 h, read-out: mortality in comparison with untreated controls. The procedure, abridged:
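Compounds in 75% water/25% DMSO sprayed at several concentrations (5 μl, two replicates) onto insect diet in 96-well microtiter plates holding 5-10 A. grandis eggs. After 5 days at about 25±1° C and 75±5% relative humidity, egg and larval mortality scored visually.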

For assay [8], the system named is Southern Armyworm (Spodoptera eridania), 2nd Instar Larvae. The experiment in a line: CE.7 Southern armyworm, 2nd instar larvae, comparative test. To be noted: foliar, 96 h, leaf dip, at 4 days, read-out: % mortality in comparison to untreated controls. On the procedure:
The tables show % mortality in comparison to untreated controls.
CE.7 Southern Armyworm (Spodoptera eridania), 2nd Instar Larvae
The active compounds were formulated in 50:50 acetone:water (vol) and 100 ppm Kinetica™ surfactant.
A pair of first true leaves of Sieva lima bean was dipped into the test solution and allowed to dry. The leaves were then placed in a plastic perforated zip enclosure bag and ten 2nd instar larvae were added. At 4 days, observations were made of mortality and reduced feeding.

For assay [9], the system named is Neotropical Brown Stink Bug (Euschistus heros). The experiment in a line: B.12 Neotropical brown stink bug, dipped pole bean. To be noted: 120 h, read-out: mortality in comparison with untreated controls. On the procedure:
B.12 Neotropical Brown Stink Bug (Euschistus heros)
For evaluating control of Euschistus heros through contact the test unit consisted of 100 ml disposable plastic beakers with transparent lids.
The compounds were formulated using a solution containing 50% water and 50% acetone. 50 ml of different concentrations of formulated compounds or mixtures were prepared in a glass petri dish and used for dipping three 6 cm sections of fresh pole bean. Each treatment was replicated eight times.
After application, the pole bean sections were air-dried and 5 adult E. heros placed in each beaker. The E. heros were then allowed to suck on the treated pole bean sections and incubated at 23±1° C., 50±5% RH for 5 days. E. heros mortality was then visually assessed.

Like-named read-outs stand apart in the source and are kept apart here.

As a reminder, the mortality is the share of the test organisms that died. Turning to `CN1C(=O)CC(NC(=O)c2ccc(C3=NOC(c4cc(Cl)c(F)c(Cl)c4)(C(F)(F)F)C3)cc2Cl)C1=O` (stereo not drawn) [Compound I-1-2, 2-Chloro-4-[5-(3,5-dichloro-4-fluoro-phenyl)-5-(trifluoromethyl)-4H-isoxazol-3-yl]-N-(1-methyl-2,5-dioxo-pyrrolidin-3-yl)benzamide], the mortality at 300 ppm in assay [1] (Thrips, 72 h) is over 75%; in [3] (72 h) it was over 75%; in [5] (72 h), over 75%. The mortality at 100 ppm in [2] is over 75%. Moreover, the mortality at 2500 ppm in assay [4], in [6] and in assay [7] was over 75% throughout. Further, the mortality at 3 ppm in [8] was 100%. For the same compound, the mortality at 500 ppm in assay [9] is over 75%.
`CN1C(=O)C[C@@H](NC(=O)c2ccc(C3=NOC(c4cc(Cl)c(F)c(Cl)c4)(C(F)(F)F)C3)cc2Cl)C1=O` (stereo partly drawn) [Compound I-1-13]: the mortality at 300 ppm in assay [1] (Thrips, 72 h) is over 75%; in [3] (72 h), over 75%; in assay [5] (72 h), over 75%. The mortality at 100 ppm in assay [2] is over 75%. The mortality at 2500 ppm in assay [4], in [6] and in assay [7] was over 75% each time. The mortality at 500 ppm in [9] was over 75%.
In the case of `CN1C(=O)CC(NC(=O)c2ccc(C3=NOC(c4cc(Cl)c(F)c(Cl)c4)(C(F)(F)F)C3)c3c2CCC3)C1=O` (stereo not drawn) [Compound I-1-10], the mortality at 300 ppm is over 75% in assay [1] (Thrips, 72 h); over 75% in assay [3] (72 h); over 75% in assay [5] (72 h). The mortality at 2500 ppm in assay [4], in [6] and in assay [7] was over 75% each time. Moreover, the mortality at 3 ppm in [8] came to 100%. For the same compound, in assay [9], the mortality at 500 ppm was over 75%.
For the compound `CCN1C(=O)C[C@@H](NC(=O)c2ccc(C3=NOC(c4ccc(F)c(Cl)c4)(C(F)(F)F)C3)cc2Cl)C1=O` (stereo partly drawn) [Compound I-1-53], the mortality at 300 ppm was over 75% in [1] (300 ppm, adult thrips, 72 hours after treatment); over 75% in assay [3] (300 ppm, 72 hours after treatment); over 75% in [5] (300 ppm, adults on sprayed rice seedlings, after 72 hours). Moreover, the mortality at 2500 ppm in [4] (2500 ppm, sprayed leaf disks, 5 days) is over 75%; in [6] (2500 ppm, adult aphids on treated diet, 3 days) it was over 75%; in assay [7] (2500 ppm, egg and larval mortality, 5 days) it was over 75%.
Consider `CCN1C(=O)CC(NC(=O)c2ccc(C3=NOC(c4cc(Cl)c(F)c(Cl)c4)(C(F)(F)F)C3)cc2Cl)C1=O` (stereo not drawn) [Compound I-1-3], for which the mortality at 300 ppm in assay [1] (Thrips, 72 h) is over 75%; in [3] (72 h) it was over 75%; in [5] (72 h), over 75%. Further, the mortality at 100 ppm in assay [2] was over 75%. The mortality at 2500 ppm in assay [4], in [6] and in assay [7] was over 75% in each case. Also, the mortality at 3 ppm in assay [8] was 100%.
